Data from US20260109672A1, “SARS-COV-2 MPRO INHIBITORS AND USES THEREOF” (NXERA PHARMA UK LIMITED, priority 2022, published 2026).
pKi: −log10 of the molar value.

How the values were obtained:
[1] = test system: P-glycoprotein (P-gp, MDR1); test: MDCK-MDR1 permeability and P-gp substrate assay; type: in vitro ADME, canine; settings: dog, pH 7.4, MDCK-MDR1, apical to basolateral, without P-gp inhibitor
Experimental: Permeability and drug efflux of certain example compounds was investigated using the following assay.
Test compound was added to either the apical side of a confluent monolayer of MDCK-MDR1 (Madin-Darby canine kidney cells stably transfected to express active P-glycoprotein) and permeability was measured by monitoring the appearance of the test compound on the basolateral side of the monolayer using LC-MS/MS. Experiments were performed in the absence and presence of a P-glycoprotein (P-gp) inhibitor elacridar (2 μM) to determine whether the compound was subject to P-gp mediated efflux.
MDCK-MDR1 cells obtained from the NIH (Rockville, MD, USA) were used between passage numbers 6-30. […]
For assessment of A-B permeability, HBSS was removed from the apical compartment and replaced with test compound dosing solution or test compound plus P-gp inhibitor dosing solutions. […] Test compound permeability was assessed in duplicate. […]
Test and control compounds were quantified by LC-MS/MS cassette analysis using a 7-point calibration with appropriate dilution of the samples. The starting concentration (C0) was determined from the dosing solution and the experimental recovery calculated from C0 and both apical and basolateral compartment concentrations.
The permeability coefficient (Papp) for each compound in the absence and presence of a P-gp inhibitor was calculated from the following equation: […]

[2] = target: T1, SARS-CoV-2 Mpro (Severe acute respiratory syndrome coronavirus 2, UniProt P0DTD1); test: SARS-CoV-2 Mpro enzyme assay (FRET); type: biochemical; settings: 20 nM Mpro, 30 min preincubation at 30° C., mean n=2, read-out: SARS-CoV-2 Mpro enzyme pKi assay pKi (converted)
[3] = target: T1, SARS-CoV-2 Mpro; test: Modified SARS-CoV-2 Mpro enzyme assay (FRET, kinetic read) for reference examples; type: biochemical; settings: 5 nM Mpro, 20 min preincubation at room temperature, mean n=2, set out in PCT/GB2022/050836, read-out: SARS-CoV-2 Mpro enzyme pKi assay pKi (converted)
[4] = Pedersen et al.; cited from earlier work
[5] = test system: SARS-CoV-2 infection; settings: approved in selected countries for limited use; Zhou et al.; cited from earlier work
[6] = test system: live virus; settings: cited from earlier work
[7] = test system: ten further coronavirus strains; settings: read-out: Ki values against ten further coronavirus strains; cited from earlier work

Compound | Ki [2] | further results
CC(C)(C)[C@H](NC(=O)C(F)(F)F)C(=O)N1C[C@H]2[C@@H]([C@H]1C(=O)NC(C[C@@H]1CCNC1=O)C(=O)C(=O)NC1CC1)C2(C)C (stereo partly drawn) [Example 1, (1R,2S,5S)-N-(4-(cyclopropylamino)-3,4-dioxo-1-((S)-2-oxopyrrolidin-3-yl)butan-2-yl)-3-((S)-3,3-dimethyl-2-(2,2,2-trifluoroacetamido)butanoyl)-6,6-dimethyl-3-azabicyclo[3.1.0]hexane-2-carboxamide] | 3.98 nM | Papp A→B at 60 min, 1 μM [1]: 0.9 ×10⁻⁶ cm/s
CNC(=O)C(=O)C(CC1CC1)NC(=O)[C@@H]1[C@@H]2[C@H](CN1C(=O)[C@@H](NC(=O)C(F)(F)F)C(C)(C)C)C2(C)C (stereo partly drawn) [Example 2, (1R,2S,5S)-N-[1-(cyclopropylmethyl)-3-(methylamino)-2,3-dioxo-propyl]-3-[(2S)-3,3-dimethyl-2-[(2,2,2-trifluoroacetyl)amino]butanoyl]-6,6-dimethyl-3-azabicyclo[3.1.0]hexane-2-carboxamide] | 20 nM | Papp A→B at 60 min, 1 μM [1]: 2.2 ×10⁻⁶ cm/s
CC(C)[C@H](NC(=O)C(F)(F)F)C(=O)N1C[C@H]2[C@@H]([C@H]1C(=O)NC(CC1CC1)C(=O)C(N)=O)C2(C)C (stereo partly drawn) [Example 3, (1R,2S,5S)-N-[3-amino-1-(cyclopropylmethyl)-2,3-dioxo-propyl]-6,6-dimethyl-3-[(2S)-3-methyl-2-[(2,2,2-trifluoroacetyl)amino]butanoyl]-3-azabicyclo[3.1.0]hexane-2-carboxamide] | 63.1 nM | –
CC(C)(C)[C@H](NC(=O)C(F)(F)F)C(=O)N1C[C@H]2[C@@H]([C@H]1C(=O)NC(CC1CCC1)C(=O)C(N)=O)C2(C)C (stereo partly drawn) [Example 4, (1R,2S,5S)-N-[3-amino-1-(cyclobutylmethyl)-2,3-dioxo-propyl]-3-[(2S)-3,3-dimethyl-2-[(2,2,2-trifluoroacetyl)amino]butanoyl]-6,6-dimethyl-3-azabicyclo[3.1.0]hexane-2-carboxamide] | 79.4 nM | –
CC(C)C(=O)N[C@H](C(=O)N1C[C@H]2[C@@H]([C@H]1C(=O)NC(C[C@@H]1CCNC1=O)C(=O)C(=O)NC1CC1)C2(C)C)C(C)(C)C (some centres unmarked) [Example 5] | 15.8 nM | –
CC(C)(C)[C@H](NC(=O)C(F)(F)F)C(=O)N1C[C@H]2[C@@H]([C@H]1C(=O)NC(C[C@H]1CCCNC1=O)C(=O)C(=O)NC1CC1)C2(C)C (stereo partly drawn) [Example 6, (1R,2S,5S)-N-[3-(cyclopropylamino)-2,3-dioxo-1-[[(3R)-2-oxo-3-piperidyl]methyl]propyl]-3-[(2S)-3,3-dimethyl-2-[(2,2,2-trifluoroacetyl)amino]butanoyl]-6,6-dimethyl-3-azabicyclo[3.1.0]hexane-2-carboxamide] | 10 nM | –
CC1(C)[C@@H]2[C@@H](C(=O)NC(C[C@@H]3CCNC3=O)C(=O)C(=O)NC3CC3)N(C(=O)/C=C/c3ccc(F)cc3F)C[C@@H]21 (stereo partly drawn) [Example 7, (1R,2S,5S)-N-(4-(cyclopropylamino)-3,4-dioxo-1-((S)-2-oxopyrrolidin-3-yl)butan-2-yl)-3-((E)-3-(2,4-difluorophenyl)acryloyl)-6,6-dimethyl-3-azabicyclo[3.1.0]hexane-2-carboxamide] | 63.1 nM | –
CC(C)C(=O)N[C@H](C(=O)N1C[C@H]2[C@@H]([C@H]1C(=O)NC(CC1CC1)C(=O)C(=O)C#N)C2(C)C)C(C)(C)C (some centres unmarked) [Example 27] | – | Ki [3]: > 5010 nM
CC(C)C[C@H](NC(=O)OCc1ccccc1)C(=O)N[C@@H](C[C@@H]1CCNC1=O)C(O)S(=O)(=O)[O-].[Na+] (some centres unmarked) [GC376] | – | Side effects in trials performed in cats [4]: side effects
NC(=O)c1nc(F)c[nH]c1=O [favipiravir] | – | Effect in treatment of SARS-CoV-2 infection [5]: modest effects
PF-00835231 | – | Activity in cell-based live virus assays [6]: ~1 µM; pKi [7]: 8.40 to 10.52
